The results in this text go back to a melting point compilation (Tetko et al.; mined from patent text by program, amines drawn as free bases though some values may be those of a salt).

Each structure is given as a SMILES string. A value given as a limit tells only on which side of the number the result lay.

Broadly, the melting point is the temperature of the solid-liquid transition. In turn, `Clc1ccc2c(c1)c(-c1ccccc1)nc1nccn12` displayed a melting point of 270 to 272 °C. `CC(C)Cn1c(=O)n(C)c(=O)c2c(C#CCCO)n(Cc3cccc4ccccc34)cc21` gave a melting point of 170 to 171 °C. Under `Cc1ccc(C(=O)c2ccc(Cc3c(Cl)cc([N+](=O)[O-])cc3Cl)cc2)cn1` stands 121 to 123 °C; under `CCOC(=O)c1ccccc1-n1c(CCl)nc2ccc(Cl)cc2c1=O`, 195 to 197 °C. For `O=C(Nc1cccc2c(CO)c(Br)cnc12)c1c(Cl)cccc1Cl`, the melting point was 246 to 247 °C. Regarding `COC(=O)CC(c1ccc(C)cc1)N1C(=O)c2ccccc2C1=O` (stereo unspecified), the melting point fell in the range of 97 to 99 °C. For the compound `CSc1ccc(C(=N)Nc2ccc(C)c(C)c2)cc1`, the melting point lay within 111 to 113 °C.

Turning to `NC1=C(N)C(=O)C(N)=C(N)C1=O`, the melting point fell in the range of 260 to 262 °C. Under `CCc1nc(OC)c(NC(=O)N2CCN(c3cccc(F)c3)CC2)cc1C(=O)Nc1cc(CO)cc(Nc2c3ccccc3nc3ccccc23)c1` stands 186 to 188 °C; under `CCc1cc(C(=O)c2ccccc2Cl)c(-n2c(C)nnc2CNC(=O)Cc2ccccc2)s1`, 153 to 155 °C. On to `CC(C)Oc1ccccc1C1(OC(=O)N2CCN(c3ccncc3)CC2)C(=O)Nc2ccc(Cl)cc21` (stereo unspecified), for which the melting point lay in the range of 196 to 198 °C. Under `Cn1nc(-c2ccc(OCCCCl)cc2)ccc1=O` stands 186 to 187 °C; under `CCOC(=O)C(=O)CC(=O)c1cn(Cc2ccc(Cl)cc2)c2ccccc2c1=O`, 174 to 176 °C; under `O=C(c1ccc([N+](=O)[O-])cc1)c1cc2c(c(Cl)c1Cl)OC(C(=O)O)C2` (stereo unspecified), 243 to 245 °C. The figure for `O=S(=O)(Nc1cccc(CC2Cc3ccc(OCc4nc5cc(F)c(F)cc5s4)cc3C2O)c1)C(F)(F)F` (stereo unspecified) is 170 to 172 °C; for `Cc1cccc(C)c1-n1cnc(OC(C)C(=O)O)n1` (stereo unspecified) it is 178 to 180 °C.

In turn, `CNC(=O)c1ccc(C(C)(C)CCNC(=O)NCc2ccc(N)nc2)nc1Nc1ccccc1` yielded a melting point of 134 °C. As to `COC(=O)c1ccc2cc(CCC=O)oc2c1`, the melting point was in the range of 57 to 58 °C. `COC(=O)Cc1ccc(OCCNC(=O)C2Cc3ccccc3N2S(=O)(=O)c2ccc(-c3ccc(F)cc3Cl)cc2)cc1` (stereo unspecified) registered a melting point of 68 °C. For the compound `CN1C(=O)C2(COc3cc4c(cc32)OCCO4)c2c(C(=O)NCc3ccc(F)cc3)cccc21` (stereo unspecified), the melting point lay within 149 to 150 °C. `Cc1c[nH]c2c1CC1CNCCC1C2` (stereo unspecified) returned a melting point of 151 to 153 °C.

`CCCn1nc(C2CC2)c(C(=O)OCC)c1Cc1ccc(-c2ccccc2-c2nnn[nH]2)cc1` came in with a melting point of 148 to 149 °C. `Cn1cccc1C=CC1=CC(=O)C(C)(C)O1`: the melting point lay within 98.5 to 100 °C. As to `CCOc1ccccc1-c1ccc2cnc(Nc3ccc(N4CCN(C)CC4)cc3)nn12`, the melting point is 164 to 165 °C. `OCCCCCCCCCCCC(F)(F)C(F)(F)F`: the melting point is 41 to 43 °C. In turn, `CC(O)c1cc(C[C@H](NC(=O)c2c(Cl)cccc2Cl)C(=O)O)ccc1-c1ccccc1` (stereo partly specified) returned a melting point of 115 to 117 °C. The figure for `O=C(c1ccc(F)cc1)C1CCN(CCCn2c(=S)[nH]c3ccccc32)CC1` is 149 °C; for `CCn1c(=O)c2c(nc(/C=C/c3cc4c(cc3Br)OCO4)n2C)n(CC)c1=O` it is 255 to 256 °C. Consider `O=C(O)c1cc(NCc2ccccc2)c(Nc2ccccc2)c(S(=O)(=O)Nc2ccccc2)c1`, for which the melting point was found to be 243 °C. Under `CCOCc1nc2c(N)nc3cc(OCCCCCCNC(C)=O)ccc3c2n1CC(C)(C)NC(C)=O` stands 190 to 192 °C. `Cc1cccc(C(=O)c2ccc(Cl)cc2)c1` returned a melting point of 108 °C. Regarding `CC(C)(C)c1cc(Cl)cc2c1OC(=O)C2O` (stereo unspecified), the melting point was in the range of 150 to 154 °C. The figure for `Fc1ccc(C(C(Br)c2ccccc2)C(F)(F)F)cc1` (stereo unspecified) is 144 to 146 °C. For `Oc1ccccc1N1CCN(Cc2nc3ccccc3[nH]2)CC1`, the melting point lay within 208 to 216 °C.

As to `CCOC(=O)C(Oc1ccccc1)c1ccccc1` (stereo unspecified), the melting point was 45 °C.

`CC(C)(C)OC(=O)C=C(c1ccc(C#N)s1)n1ccnc1` had a melting point of 90 to 91 °C. In the case of `O[C@H]1c2cc(OCc3ccncc3)ccc2OC[C@H]1Cc1cccnc1` (relative stereo), the melting point was in the range of 100 to 102 °C.

In turn, `COc1ccc2c(=O)c3ccc(O)c(OC)c3oc2c1` displayed a melting point of 120 to 121 °C. `COC(=O)C1=C(C)NC(C)=C(C(=O)OCCOC(=O)c2ccc(NC(C)=O)cc2)C1c1cccc([N+](=O)[O-])c1` (stereo unspecified) gave a melting point of 190 to 193 °C. The compound `C=CCNc1cc2c(c3ccccc13)C(CCl)CN2C(=O)c1cc2cc(OC)c(OC)c(OC)c2[nH]1` (stereo unspecified) showed a melting point of 107 to 112 °C. The figure for `Cc1cccc(NC(=O)CN2CCN(c3ccccc3C)CC2)c1` is 104 to 106 °C; for `CCc1c(-c2ccc(OC)cc2)c2cc(C(C)=O)c3cccc1n32` it is 73 to 75 °C. Under `CCCC(=O)c1cnc2ccccc2c1Nc1ccccc1C` stands 107 to 109 °C; under `CN(C)c1ccc(C=C2Cc3cc4c(cc3C2=O)CCCC4)cc1`, 161 to 163 °C. With `CCCn1c(=O)c(N=O)c(N)n(Cc2ccccc2)c1=O`, the melting point is 208 to 212 °C. With `CC(=O)O[C@H]1[C@H](NC(=N)Nc2ccccc2)c2cc(C#N)ccc2OC1(C)C` (relative stereo), the melting point was 239 to 240 °C. `CCc1nc(OC)c(NC(=O)N2CCN(c3cc(F)cc(F)c3)CC2)cc1C(=O)Nc1cc(CO)cc(Nc2c3ccccc3nc3ccccc23)c1`: the melting point lay within 184 to 186 °C. The compound `OCC1CC2CCC13CN(CC1CC1)CCC31c3cccc(O)c3OC21` (stereo unspecified) yielded a melting point of 187 to 190 °C. Under `NC(=O)c1c(Cl)c(-c2ccccc2)n2c1CN(C(=O)c1cccs1)CC2` stands 236 to 238 °C; under `O=C(CC1c2ccc(-c3ccccc3)cc2S(=O)(=O)N1c1ccccc1)NO` (stereo unspecified), 191 to 193 °C; under `CSCC(=O)Nc1ccc(C2=NNC(=O)CC2C)cc1` (stereo unspecified), 220 to 222 °C. The compound `Cn1c(-c2ccc(-n3cnc4ccccc43)cc2)cnc1[C@H](Cc1ccccn1)N(C=O)c1cc2ccccc2o1` came in with a melting point of 152 to 155 °C. The figure for `CCCN1CCC=C(c2csc(NC(C)=O)n2)C1` is 109 to 112 °C.

Compound `CCCCCCCCCC(=O)Nc1cc(N)cc(NC(=O)CCCCCCCCC)c1` returned a melting point of 152 to 154 °C.

Consider `CC(C)(C)OC(=O)N[C@@H](Cc1cc(F)cc(F)c1)[C@H](O)CCl`, for which the melting point turned out to be 149 °C.

Turning to `CC(=O)NCCOc1ccc(N)cc1O`, the melting point came out at 134 °C.

`COc1ccc(-c2cc(N3CCCCC3)c(C#N)c3c2-c2ccccc2C3)cc1` yielded a melting point of 202 to 204 °C. In the case of `Cc1onc(-c2ccccc2)c1-c1[nH]c2ccccc2c1C(=O)C(=O)N(C)C`, the melting point lay within 258 to 260 °C. In turn, `CCCCCCOc1ccc2cc(C(C)C(=O)O)ccc2c1` (stereo unspecified) showed a melting point of 88 to 91 °C. In turn, `COc1cccc([C@H]2O[C@H](CC(=O)Nc3cc(OC(C)C)c4oc(C(=O)O)cc4c3)C(=O)N(CC(C)(C)CO)c3ccc(Cl)cc32)c1OC` gave a melting point of 189 to 190 °C.

Compound `C=Cc1nc(C#N)c(C#N)n1CC` registered a melting point of 66 to 70 °C. As to `COc1ccc2c(c1)C(NCCCCc1ncc(Br)cc1C)=NS2(=O)=O`, the melting point fell in the range of 161 to 162 °C. `CSCC(C)(C)NC(=O)c1c(I)cccc1Oc1ncc(C(F)(F)F)cc1Cl` returned a melting point of 83 to 85 °C. `OC(CS)(Cn1cncn1)c1ccc(F)cc1F` (stereo unspecified) came in with a melting point of 112 to 113 °C. The figure for `O=C(Nc1cn2cc(Cl)ccc2n1)c1ccc(-n2cccn2)cc1` is 287 to 289 °C.

Compound `CC1CCc2c(N3CCNCC3)ccc3c2N1C=C(C(=O)O)C3` (stereo unspecified) showed a melting point of 264 to 265 °C. In turn, `COc1ccc(-n2nc(C(=O)CCCO[N+](=O)[O-])cc2-c2ccc(S(C)(=O)=O)cc2)cc1` displayed a melting point of 132 to 134 °C. In turn, `COC12CC(CCOC(=O)c3ccc[nH]3)CN(C)C1Cc1cn(C)c3cccc2c13` (stereo unspecified) showed a melting point of 148 to 149 °C.

With `CS(=O)(=O)Nc1cc2occ(-n3cccc3)c(=O)c2cc1Oc1ccccc1`, the melting point was in the range of 238 to 240 °C. In turn, `Cn1c(=O)on(-c2ccccc2)c1=O` showed a melting point of 98 to 99 °C.

In turn, `CCOC(=O)c1c(Nc2ccccc2)nc2ccc(Br)cc2c1Cl` yielded a melting point of 171 to 172 °C. In turn, `C[C@@]1(CN2CCN(C(=O)OCc3ccc(F)cc3)CC2)Cn2cc([N+](=O)[O-])nc2O1` registered a melting point of 167 to 169 °C.

For the compound `CN1C(=O)Cn2c(nn(-c3ccccc3)c2=O)-c2cc(Cl)ccc21`, the melting point was 174 to 175 °C. `CCS(=O)c1cc2c(cc1OC)CCn1c-2cc2c1C(=O)N(C(C)(C)C)CCCC2` (stereo unspecified) came in with a melting point of 185 to 187 °C. Take `CCCCc1ncc(CO)n1Cc1ccc(OCc2ccccc2C(=O)O)cc1`: the melting point is 115 to 116 °C. The figure for `CN(CCCNC(=O)c1ccccc1)CCCc1c[nH]c2ccccc12` is 73 to 74 °C; for `CCC(=O)Oc1cc([N+](=O)[O-])cc([N+](=O)[O-])c1OC(=O)CC` it is 72 to 73 °C. For `Nc1nc2ccccc2c2c1nc(CCO)n2CCCNC(=O)c1cc2ccccc2cn1`, the melting point fell in the range of 245 to 246 °C. `O=C(O)CNC(=O)COc1c(F)cc(CSCCNS(=O)(=O)c2ccc(Cl)cc2)cc1F` yielded a melting point of 140 °C. Regarding `Nc1c(N=O)c(=O)n(CC2CCCCCC2)c(=O)n1CC1CCCCCC1`, the melting point was > 250 °C.

As for `COC1Cc2nc3cc(N)ccc3n2C1` (stereo unspecified), the melting point is 140 to 142 °C.

Compound `CNCC(=O)NC(=O)OC(C)(C)C` displayed a melting point of 103 °C.

Consider `CC(CCCc1ccccc1)Oc1cc(O)c2c(c1)OC(C)(C)CC2=O` (stereo unspecified), for which the melting point is 83 to 84 °C. In turn, `N#Cc1ccc(CCCCC(=O)O)cc1` had a melting point of 101 to 102 °C.

Regarding `N#CC1=C(Nc2ccccc2N)CSC1`, the melting point was determined as 163 °C.

For `O=C(O)c1cnn(-c2nc(-c3cccc(C(F)(F)F)c3)cs2)c1`, the melting point is 229 to 230 °C.
